{
  "source": "patent US20040009485A1",
  "about": "“Cellular arrays for the identification of altered gene expression” (priority 2002, published 2004)",
  "tested_on": "LuxArray 1.04 E. coli strains (luxCDABE gene fusions)",
  "assay": "LuxArray 1.04 limonene stress of the reporter array in liquid culture",
  "assay_type": "cell-based",
  "conditions": "80% saturated limonene in LB",
  "description": "Microplates from −80° C. containing the LuxArray 1.04 E. coli strains were thawed and used to inoculate 100 μl LB medium supplemented with 100 μg/ml ampicillin in Costar#3595 flat bottomed 96-well microplates. Following overnight growth at 37° C., the plates were visually examined and any wells with little or no turbidity were recorded. Then these cultures were diluted by transfer of 15 μl to 135 μl LB medium in Costar #3595, flat bottom 96-well microplates and were moderately swirl shaken on an IKA Schuttler MTS 4 shaker at setting 400 for two hrs at 37° C. in a humidified box. Twenty μl of each these actively growing cultures were transferred to the corresponding well in sets of three microplates, one containing 80 μl of LB medium, another containing 80 μl of LB medium saturated with limonene at room temperature, and the third containing 40 μl of LB medium saturated with limonene and 40 μl of LB medium. An initial (zero time) reading was taken using an MLX microplate luminometer (Dynex) pre-warmed to 37° C. Then the plates were placed at 37° C. without shaking. Additional bioluminescent measurements were taken at 45, 90, and 135 minutes. To limit the number of microplates handled each day, LuxArray 1.04 microplates 1 to 5, microplates 6 to 10, microplates 11 to 15, and microplates […] were used on each of four different days.\nThe data were normalized to correct for growth-inhibition caused by limonene on the basis of each individual day that data was collected. The bioluminescence (RLU) of each individual culture for each day of experimentation under each of the three conditions, were added to determine the daily array total RLU. These were used to find a daily normalization factor (DNF) as follows:\nDNF=Daily total array signal(time zero, LB control)/Daily total array signal(time x, condition y)\nEach measurement from the corresponding day, time point, and condition was multiplied by DNF to yield a normalized signal. The data from wells that were scored to have little or no growth were not used in further analysis. The normalized data were analyzed with GeneSpring (Silicon Genetics) software, which averaged the signal from each of the duplicate cultures for each reporter gene fusion.\nThus, patterns of gene expression from the 80% saturated limonene in LB medium were further examined. […] These lists were examined and gene fusions with very low normalized RLU values (<0.012 RLU) at all conditions were eliminated. […] The designation of “>2X” is given for upregulation while “*” is listed if the expression was less than 2 fold increased. At 45 minutes, the expression of fourteen gene fusions was increased; none of these was increased 3 fold or higher. At 90 minutes, 37 gene fusions were induced; these included all but one of the gene fusions observed at 45 minutes. […] These were fusions of the luxCDABE reporter to the promoter regions of uhpT (3.8×), nirB (3.7×) and narK (3.6×). At 135 minutes, 39 gene fusions were induced, which included 13 fusions not observed at 45 or 90 minutes.",
  "data": [
    {"smiles": "C=C(C)[C@H]1CC=C(C)CC1", "note": "[limonene]", "values": [
      {"measurement": "upregulation of gene fusion", "setting": "b2451 fusion, 135 minutes", "value": ">2X (The designation of “>2X” is given for upregulation)"},
      {"measurement": "upregulation of gene fusion", "setting": "b2550 fusion, 45 minutes", "value": "* (“*” is listed if the expression was less than 2 fold increased)"},
      {"measurement": "upregulation of gene fusion", "setting": "b2550 fusion, 90 minutes", "value": ">2X (The designation of “>2X” is given for upregulation)"},
      {"measurement": "upregulation of gene fusion", "setting": "b2550 fusion, 135 minutes", "value": "* (“*” is listed if the expression was less than 2 fold increased)"},
      {"measurement": "upregulation of gene fusion", "setting": "b2699 (recA) fusion, 45 minutes", "value": "* (“*” is listed if the expression was less than 2 fold increased)"},
      {"measurement": "upregulation of gene fusion", "setting": "b2699 (recA) fusion, 90 minutes", "value": ">2X (The designation of “>2X” is given for upregulation)"},
      {"measurement": "upregulation of gene fusion", "setting": "b2699 (recA) fusion, 135 minutes", "value": ">2X (The designation of “>2X” is given for upregulation)"},
      {"measurement": "upregulation of gene fusion", "setting": "b2999 fusion, 45 minutes", "value": ">2X (The designation of “>2X” is given for upregulation)"},
      {"measurement": "upregulation of gene fusion", "setting": "b2999 fusion, 90 minutes", "value": "* (“*” is listed if the expression was less than 2 fold increased)"},
      {"measurement": "upregulation of gene fusion", "setting": "b2999 fusion, 135 minutes", "value": "* (“*” is listed if the expression was less than 2 fold increased)"},
      {"measurement": "upregulation of gene fusion", "setting": "b3012 fusion, 45 minutes", "value": ">2X (The designation of “>2X” is given for upregulation)"},
      {"measurement": "upregulation of gene fusion", "setting": "b3012 fusion, 90 minutes", "value": ">2X (The designation of “>2X” is given for upregulation)"},
      {"measurement": "upregulation of gene fusion", "setting": "b3012 fusion, 135 minutes", "value": ">2X (The designation of “>2X” is given for upregulation)"},
      {"measurement": "upregulation of gene fusion", "setting": "b3245 fusion, 45 minutes", "value": "* (“*” is listed if the expression was less than 2 fold increased)"},
      {"measurement": "upregulation of gene fusion", "setting": "b3245 fusion, 90 minutes", "value": ">2X (The designation of “>2X” is given for upregulation)"},
      {"measurement": "upregulation of gene fusion", "setting": "b3245 fusion, 135 minutes", "value": ">2X (The designation of “>2X” is given for upregulation)"},
      {"measurement": "upregulation of gene fusion", "setting": "b3267 (yhdV) fusion, 45 minutes", "value": "* (“*” is listed if the expression was less than 2 fold increased)"},
      {"measurement": "upregulation of gene fusion", "setting": "b3267 (yhdV) fusion, 90 minutes", "value": ">2X (The designation of “>2X” is given for upregulation)"},
      {"measurement": "upregulation of gene fusion", "setting": "b3267 (yhdV) fusion, 135 minutes", "value": ">2X (The designation of “>2X” is given for upregulation)"},
      {"measurement": "upregulation of gene fusion", "setting": "b3336 (bfr) fusion, 45 minutes", "value": "* (“*” is listed if the expression was less than 2 fold increased)"},
      {"measurement": "upregulation of gene fusion", "setting": "b3336 (bfr) fusion, 90 minutes", "value": ">2X (The designation of “>2X” is given for upregulation)"},
      {"measurement": "upregulation of gene fusion", "setting": "b3336 (bfr) fusion, 135 minutes", "value": "* (“*” is listed if the expression was less than 2 fold increased)"},
      {"measurement": "upregulation of gene fusion", "setting": "b3365 (nirB) fusion, 45 minutes", "value": "* (“*” is listed if the expression was less than 2 fold increased)"},
      {"measurement": "upregulation of gene fusion", "setting": "b3365 (nirB) fusion, 90 minutes", "value": ">2X (The designation of “>2X” is given for upregulation)"},
      {"measurement": "upregulation of gene fusion", "setting": "b3365 (nirB) fusion, 135 minutes", "value": ">2X (The designation of “>2X” is given for upregulation)"},
      {"measurement": "upregulation of gene fusion", "setting": "b3419 (yhgJ) fusion, 45 minutes", "value": "* (“*” is listed if the expression was less than 2 fold increased)"},
      {"measurement": "upregulation of gene fusion", "setting": "b3419 (yhgJ) fusion, 90 minutes", "value": ">2X (The designation of “>2X” is given for upregulation)"},
      {"measurement": "upregulation of gene fusion", "setting": "b3419 (yhgJ) fusion, 135 minutes", "value": ">2X (The designation of “>2X” is given for upregulation)"},
      {"measurement": "upregulation of gene fusion", "setting": "b3666 (uhpT) fusion, 45 minutes", "value": "* (“*” is listed if the expression was less than 2 fold increased)"},
      {"measurement": "upregulation of gene fusion", "setting": "b3666 (uhpT) fusion, 90 minutes", "value": ">2X (The designation of “>2X” is given for upregulation)"},
      {"measurement": "upregulation of gene fusion", "setting": "b3666 (uhpT) fusion, 135 minutes", "value": ">2X (The designation of “>2X” is given for upregulation)"},
      {"measurement": "upregulation of gene fusion", "setting": "b3904 (rhaB) fusion, 45 minutes", "value": ">2X (The designation of “>2X” is given for upregulation)"},
      {"measurement": "upregulation of gene fusion", "setting": "b3904 (rhaB) fusion, 90 minutes", "value": ">2X (The designation of “>2X” is given for upregulation)"},
      {"measurement": "upregulation of gene fusion", "setting": "b3904 (rhaB) fusion, 135 minutes", "value": ">2X (The designation of “>2X” is given for upregulation)"},
      {"measurement": "upregulation of gene fusion", "setting": "b3942 (katG) fusion, 45 minutes", "value": "* (“*” is listed if the expression was less than 2 fold increased)"},
      {"measurement": "upregulation of gene fusion", "setting": "b3942 (katG) fusion, 90 minutes", "value": ">2X (The designation of “>2X” is given for upregulation)"},
      {"measurement": "upregulation of gene fusion", "setting": "b3942 (katG) fusion, 135 minutes", "value": ">2X (The designation of “>2X” is given for upregulation)"},
      {"measurement": "upregulation of gene fusion", "setting": "b4043 (lexA) fusion, 45 minutes", "value": "* (“*” is listed if the expression was less than 2 fold increased)"},
      {"measurement": "upregulation of gene fusion", "setting": "b4043 (lexA) fusion, 90 minutes", "value": ">2X (The designation of “>2X” is given for upregulation)"},
      {"measurement": "upregulation of gene fusion", "setting": "b4043 (lexA) fusion, 135 minutes", "value": "* (“*” is listed if the expression was less than 2 fold increased)"},
      {"measurement": "upregulation of gene fusion", "setting": "b4106 (phnC) fusion, 45 minutes", "value": ">2X (The designation of “>2X” is given for upregulation)"},
      {"measurement": "upregulation of gene fusion", "setting": "b4106 (phnC) fusion, 90 minutes", "value": ">2X (The designation of “>2X” is given for upregulation)"},
      {"measurement": "upregulation of gene fusion", "setting": "b4106 (phnC) fusion, 135 minutes", "value": ">2X (The designation of “>2X” is given for upregulation)"},
      {"measurement": "upregulation of gene fusion", "setting": "b4264 (yjgS) fusion, 45 minutes", "value": "* (“*” is listed if the expression was less than 2 fold increased)"},
      {"measurement": "upregulation of gene fusion", "setting": "b4264 (yjgS) fusion, 90 minutes", "value": ">2X (The designation of “>2X” is given for upregulation)"},
      {"measurement": "upregulation of gene fusion", "setting": "b4264 (yjgS) fusion, 135 minutes", "value": "* (“*” is listed if the expression was less than 2 fold increased)"},
      {"measurement": "upregulation of gene fusion", "setting": "b4392 (slt) fusion, 45 minutes", "value": ">2X (The designation of “>2X” is given for upregulation)"},
      {"measurement": "upregulation of gene fusion", "setting": "b4392 (slt) fusion, 90 minutes", "value": ">2X (The designation of “>2X” is given for upregulation)"},
      {"measurement": "upregulation of gene fusion", "setting": "b4392 (slt) fusion, 135 minutes", "value": "* (“*” is listed if the expression was less than 2 fold increased)"},
      {"measurement": "upregulation of gene fusion (fold)", "setting": "katG promoter fusion, 135 minutes", "value": 4.1, "unit": "×"},
      {"measurement": "upregulation of gene fusion (fold)", "setting": "narK promoter fusion, 90 minutes", "value": 3.6, "unit": "×"},
      {"measurement": "upregulation of gene fusion (fold)", "setting": "nirB promoter fusion, 90 minutes", "value": 3.7, "unit": "×"},
      {"measurement": "upregulation of gene fusion (fold)", "setting": "nirB promoter fusion, 135 minutes", "value": 4.1, "unit": "×"},
      {"measurement": "upregulation of gene fusion (fold)", "setting": "uhpT promoter fusion, 90 minutes", "value": 3.8, "unit": "×"},
      {"measurement": "upregulation of gene fusion (fold)", "setting": "uhpT promoter fusion, 135 minutes", "value": 7.7, "unit": "×"}
    ]}
  ]
}
